“Also recorded” adds a separate entry of the source.

The test system of data set [1] is LPS-induced neutrophil influx into bronchoalveolar lavage fluid. Put plainly: LPS-induced lung inflammation model: inhibition of LPS-induced neutrophil influx into bronchoalveolar lavage fluid. The format is in vivo, male Wistar rats. The conditions noted are these: for ED50 (half-maximal effective dose), inhibition of LPS-induced neutrophil influx into BALF: male Wistar rats, oral by gavage, BALF 4 hours after end of LPS exposure, nonlinear fit; for ED50 found in efficacy studies in the rat (restated in dose table): p.o., LPS-induced neutrophil influx. The method, then:
The anti-inflammatory activity of Examples 1 and 2 and of Prior art compounds A and D was assessed in an in vivo LPS-induced lung inflammation model in rats.
As a measure of the pharmacological potency of the above mentioned compounds the half-maximal effective dose (ED50) in regard to the inhibition of lipopolysaccharide-induced (LPS-induced) neutrophil influx into the bronchoalveolar lavage fluid (BALF) was determined by assessing the dose response relationship. Bacterial endotoxins (lipopolysaccharides [LPS]) are components of the outer bacterial cell membrane which play an important role in the pathogenesis of infections with gram-negative bacteria. It is known that inhalation of such aerosolized LPS induces a dose-dependent increase in neutrophils to lung tissues and airspaces in rats which may be detected by analyzing the amount of neutrophils in the bronchoalveolar lavage fluid (BALF). However, this dose-dependent increase of neutrophils in the BALF should be diminished in a dose-dependent way in the presence of an effective PDE4-inhibitor.
Male Wistar rats (HanWistar) from an approved local distributor were used for the experiments. The ordered weight of the animals was in the range of 200-250 g. Animals were fasted overnight before the experiment. A total number of 32 animals were used for each experiment. Eight animals (n=8) per dose were used for the treatment groups, […].
The animals of the LPS-control and of the negative control groups received“vehicle only” (“vehicle only” corresponds to 10 ml/kg body weight 0.5% Natrosol solution). The other groups were treated with the different doses of either Example compound 1, Example compound 2, Prior art compound A or Prior art compound D respectively (see Table D).
The amount of compound for the highest concentration tested for each compound was suspended in 10 ml 0.5% Natrosol (Hydroxyethylcellulose) solution and then diluted to the respective concentrations as shown in Table D. The respective compound suspension or “vehicle only” (10 ml/kg body weight 0.5% Natrosol solution) was administered orally by gavage. The resulting doses of the individual compounds corresponded to Table D:
One hour (0.5 hour for Prior art compound A and for Prior art compound D) after compound application (time set to allow for sufficient exposure as guided by prior pharmacokinetic experiments) the animals were exposed to nebulised/aerosolized LPS. The whole body exposure of 12 animals each was performed in a plexi glas chamber. Animals were separated/individualized with perforated metal plates. The aerosol was generated with a commercially available nebuliser (PARI Master+PARI LL nebuliser (Pari GmbH). The concentration of the nebulized LPS-solution was 1 mg/ml air. The duration of the LPS exposure was 30 minutes.
4 hours after the end of LPS exposure animals were anesthetised with Isoflorane and euthanised thereafter by cervical dislocation. The trachea was cannulated and BALF was performed using 2×5 mL lavage buffer (phosphate buffered saline (PBS)+2% BSA).
Determination of neutrophil content of the BALF was performed using an ADVIA 120 blood hemacytometer (Bayer Diagnostics). Neutrophil data were normalised (Positive Control (=LPS treatment alone)=100%, Negative Control (no LPS treatment, administration of “vehicle only”)=0%) and expressed as percent of LPS control. The ED50 was calculated using a nonlinear fit (with the Graph Pad Prism software and a sigmoidal dose response fit).
The ED50-value is the half-maximal effective dosis of the compound in question with respect to its inhibition of an LPS-induced neutrophil influx into BALF. Consequently a very small ED50-value stands for a good capability of the respective compound to prevent neutrophil influx into the lung tissue after LPS exposure and therefore for a good capacity of the respective compound to prevent inflammation of the lung tissue. […]

Data set [2] can be described thus: Gastric emptying and gastrointestinal transit in conscious rats (barium sulfate test meal). The data set is classed as in vivo, Wistar rats. The note with it: for intestinal transit versus negative control: doses up to 30-fold ED50 dose p.o. The procedure: In order to evaluate whether the compounds of the present invention lead to gastrointestinal side effects the compounds of the invention have been administered to rats 30 minutes before the rats were fed with a test meal comprising barium sulfate. After that it was tested whether gastric emptying and/or gastrointestinal transit in these rats was affected by the presence of these compounds.
The effects of the compounds Example 1 and Example 2 on gastric emptying and gastrointestinal transit in conscious rats has been investigated as described below. Wistar rats of both sexes weighing 130-160 g (ages: male 7 wk, female 8 wk) were used. The animals are obtained from an approved local distributor, a minimum of four days quarantine is required before use, during which time the animals are maintained under routine animal care procedures. Groups of up to 5 animals are housed in cages in a room with controlled temperature and humidity and a light/dark cycle with the lights on from 6 a.m. to 6 p.m. The animals have access to normal rodent chow and water ad libitum. The animals are transported to the laboratory on the day of experimentation. Gastric emptying as well as small intestinal propulsion are determined using a barium sulfate test meal. Five rats Crl:WI(Han) of each sex (n=10) were used. The animals were deprived of food 17 h prior to the experiment but allowed free access to water.
The drug under investigation (drug was suspended to the concentration of 10 ml/kg body weight in 0.5% Natrosol solution) or the negative control (vehicle alone was given 10 ml/kg body weight) was administered 30 min. (p.o.) before the test meal at doses calculated to be 3-fold, 10-fold or 30-fold the ED50 found in efficacy studies in the rat.
The test meal (suspension of 7.5 g barium sulfate in 10 ml salt-free water) is given orally by gavage at a dose of 2 ml/100 g body weight. Thirty minutes after the administration of the test meal the animals were killed in deep isoflurane anaesthesia by cervical dislocation. The stomach and the intestine were then exposed by laparatomy and removed.
The removed stomach was weighed, then incised, the contents removed and the empty stomach is weighed again.
The length of gut traversed with barium sulfate in relation to the whole length of the gut is determined by direct measurements using a ruler.
The gastric content was calculated from the weight difference between the filled and empty stomach and normalized to 100 g body weight. Thus, an increase in weight difference indicated an impaired gastric emptying, whereas a decrease in weight difference indicated an enhanced gastric emptying.
The length of gut traversed with barium sulphate (as judged by visual inspection) in relation to the whole length of the gut (from the pylorus to the rectum) is determined by direct measurements using a ruler.
Intestinal transit is calculated as the percentage movement of barium sulphate in the intestine in relation to the whole length of the gut. Consequently an increased intestinal transit length indicated an accelerated intestinal transit whereas a decreased intestinal transit length indicated decelerated intestinal transit.
Data are expressed as mean±standard deviation (SD). For each dose, comparisons were performed using an analysis of variance (ANOVA) and a post hoc Dunnett test to compare the various groups to the controls when the ANOVA was significant. p<0.05 was considered significant.

[3] abbreviates: all tested doses up to 30-fold ED50 dose p.o.

As for `[O-][S+]1CCc2nc(N3CCC(c4ccc(Cl)cc4)CC3)nc(NC3(CO)CCC3)c21` (single isomer, unassigned) [Example 1], the “ED50 (half-maximal effective dose), inhibition of LPS-induced neutrophil influx into BALF” value in data set [1] is listed as 0.31 mg/kg body weight. The “ED50 found in efficacy studies in the rat (restated in dose table)” value in data set [1] is “(ED50 = 0.31 mg/kg BW”. Also, the “gastric emptying versus negative control” value was “no relevant differences” in data set [2] (3-fold ED50 dose p.o., 30 min before test meal); “no relevant differences” in data set [2] (10-fold ED50 dose p.o., 30 min before test meal); “only a very moderate enhancement of the weight difference per body weight” in data set [2] (30-fold ED50 dose p.o., 30 min before test meal); “neither showed a substantially enhanced or impaired gastric emptying” in data set [2] (setting [3]). For the same compound, the “intestinal transit versus negative control” value in data set [2] is on record as “nor a substantially accelerated or decelerated intestinal transit; also recorded: no significant differences”.

As to `[O-][S+]1CCc2nc(N3CCC(c4ncc(Cl)cn4)CC3)nc(NC3(CO)CCC3)c21` (single isomer, unassigned) [Example 2], in data set [1], the “ED50 (half-maximal effective dose), inhibition of LPS-induced neutrophil influx into BALF” value is reported as 0.1 mg/kg body weight and the “ED50 found in efficacy studies in the rat (restated in dose table)” value was “(ED50 = 0.1 mg/kg BW”. The “gastric emptying versus negative control” value in data set [2] (setting [3]) was “neither showed a substantially enhanced or impaired gastric emptying; also recorded: no relevant differences”. In data set [2], the “intestinal transit versus negative control” value was “nor a substantially accelerated or decelerated intestinal transit; also recorded: no relevant differences”.

On to `[O-][S+]1CCc2nc(N3CCC(c4ccc(Cl)cc4)CC3)nc(NC3(CO)CC3)c21` (stereo not shown) [Prior art compound A, reference compound], for which the “ED50 (half-maximal effective dose), inhibition of LPS-induced neutrophil influx into BALF” value in data set [1] was determined as 1.13 mg/kg body weight.

For `[O-][S+]1CCc2nc(N3CCC(c4cccc(Cl)c4)CC3)nc(NC3(CO)CC3)c21` (stereo not shown) [Prior art compound D, reference compound], the “ED50 (half-maximal effective dose), inhibition of LPS-induced neutrophil influx into BALF” value in data set [1] was found to be 6.66 mg/kg body weight.

The record behind these values is patent US9150586B2, “Piperidino-dihydrothienopyrimidine sulfoxides and their use for treating COPD and asthma” (Boehringer Ingelheim International GmbH, priority 2011, dated 2015).
